Measurements as given in patent US6376692B1, “Zirconium alkoxytris (β-Diketonate), process for manufacturing the same, and liquid composition for formation of PZT film” (Kabushikikaisha Kojundokagaku Kenkyusho, priority 1999, dated 2002).
Read-outs that look alike come from different tables or passages of the source.

Conditions: room temperature

Row | amount dissolved in 1 liter of the solvent (Butyl Acetate) | amount dissolved in 1 liter of the solvent (Hexane) | amount dissolved in 1 liter of the solvent (THF) | amount dissolved in 1 liter of the solvent (Toluene) | amount dissolved in 1 liter of the solvent (n-Butyl Ether) | Structure (SMILES)
1 | 460 grams in 1 liter of the solven | 620 grams in 1 liter of the solven | 980 grams in 1 liter of the solven | 1100 grams in 1 liter of the solven | 430 grams in 1 liter of the solven | CC(C)(C)C(=O)C=C([O-])C(C)(C)C.CC(C)(C)C(=O)C=C([O-])C(C)(C)C.CC(C)(C)C(=O)C=C([O-])C(C)(C)C.CC(C)[O-].[Zr+4] [Zr(OiPr)(dpm)3, zirconium isopropoxy tris(dipivaloylmethanate)]
2 | 180 grams in 1 liter of the solven | 430 grams in 1 liter of the solven | 1020 grams in 1 liter of the solven | 290 grams in 1 liter of the solven | 240 grams in 1 liter of the solven | CC(C)(C)C(=O)C=C(O)C(C)(C)C.CC(C)(C)C(=O)C=C(O)C(C)(C)C.CC(C)(C)C(=O)C=C(O)C(C)(C)C.CC(C)(C)C(=O)C=C(O)C(C)(C)C.[Zr] [Zr(dpm)4]
